Measurements reported in patent US12157730B2, “Heteroaryl derivative, method for producing same, and pharmaceutical composition comprising same as effective component” (VORONOI INC., priority 2019, dated 2024).

Molecular target: T1, Ba/F3 cell EGFR Exon20 ins NPH (Homo sapiens, UniProt P00533, INS773NPH)
T1 construct: expressed in transfected cells; host or cells: Ba/F3
Test: Ba/F3 cell proliferation suppression, EGFR Exon20 ins NPH
Type: cell-based
Details: GI50 class; Ba/F3 cell line with NPH inserted at Exon20 of EGFR; 72 hours
In short: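 Cells (3000–5000/well) plated 24 h before compound, 12-point 3-fold dilutions at 0.3 nM to 50 um final; Ba/F3 lines grown with 5 ng/ml IL-3. Viability by CellTiter-Glo luminescence after 72 h, growth ratio vs control, GI50 from curves; triplicate.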

Structure (SMILES)	Ba/F3 (NPH) Activity
C=CC(=O)Nc1cc(Nc2cc(N3OCC[C@@H]3c3cccc(C(F)(F)F)c3)ncn2)c(OC)cc1N1CCC(N2CCN(C)CC2)CC1 [compound 453, N-(4-methoxy-2-(4-(4-methylpiperazine-1-yl)piperidine-1-yl)-5-((6-((R)-3-(3-(trifluoromethyl)phenyl)isoxazolidine-2-yl)pyrimidine-4-yl)amino)phenyl)acrylamide]	A (GI50 < 50 nM)
C#Cc1cccc([C@H]2CCON2c2cc(Nc3cc(NC(=O)C=C)c(N4CCC(N5C[C@@H](C)O[C@@H](C)C5)CC4)cc3OC)ncn2)c1 [compound 651, N-(2-(4-((2S,6R)-2,6-dimethylmorpholino)piperidine-1-yl)-5-((6-((R)-3-(3-ethynylphenyl)isoxazolidine-2-yl)pyrimidine-4-yl)amino)-4-methoxyphenyl) acrylamide]	A (GI50 < 50 nM)
C=CC(=O)Nc1cc(Nc2cc(N3OCC[C@@H]3c3cccc4ccccc34)ncn2)c(OC)cc1N1CCC(N2CCO[C@@H](C)C2)CC1 [compound 535, N-(4-methoxy-2-(4-((S)-2-methylmorpholino)piperidine-1-yl)-5-((6-((R)-3-(naphthalene-1-yl)isoxazolidine-2-yl)pyrimidine-4-yl)amino)phenyl)acrylamide]	A (GI50 < 50 nM)
C=CC(=O)Nc1cc(Nc2cc(N3OCC[C@@H]3c3cc(F)cc(F)c3)ncn2)c(OC)cc1N1CCC(N2C[C@H]3CC[C@@H](C2)N3C2CC2)CC1 [Example 115, N-(2-(4-((1R,5S)-8-cyclopropyl-3,8-diazabicyclo[3.2.1]octan-3-yl)piperidine-1-yl)-5-((6-((R)-3-(3,5-difluorophenyl)isoxazolidine-2-yl)pyrimidine-4-yl)amino)-4-methoxyphenyl) acrylamide]	A (GI50 < 50 nM)
C=CC(=O)Nc1cc(Nc2cc(N3OCC[C@@H]3Cc3ccccc3)ncn2)c(OC)cc1N1CCN(C2CCN(C)CC2)CC1 [compound 970, N-(5-((6-((S)-3-benzylisoxazolidine-2-yl)pyrimidine-4-yl)amino)-4-methoxy-2-(4-(1-methylpiperidine-4-yl)piperazine-1-yl)phenyl)acrylamide]	A (GI50 < 50 nM)
C=CC(=O)Nc1cc(Nc2cc(N3OCC[C@@H]3c3cccc4ccccc34)ncn2)c(OC)cc1N1CCC(N(C)C)CC1 [compound 442, N-(2-(4-methoxy-5-((6-(dimethylamino)piperidine-1-yl)-4-((R)-3-(naphthalene-1-yl)isoxazolidine-2-yl)pyrimidine-4-yl)amino)phenyl) acrylamide]	A (GI50 < 50 nM)
C=CC(=O)Nc1cc(Nc2cc(N3OCC[C@@H]3c3cccc(F)c3F)ncn2)c(OC)cc1N1CCN(C2CC2)CC1 [compound 333, N-(2-(4-cyclopropylpiperazine-1-yl)-5-((6-((R)-3-(2,3-difluorophenyl)isoxazolidine-2-yl)pyrimidine-4-yl)amino)-4-methoxyphenyl) acrylamide]	A (GI50 < 50 nM)
C=CC(=O)Nc1cc(Nc2cc(N3OCC[C@@H]3c3ccc(Cl)c(F)c3)ncn2)c(OC)cc1N1CCC(N2C[C@H]3C[C@@H]2CN3CC)CC1 [compound 859, N-(5-((6-((R)-3-(4-chloro-3-fluorophenyl)isoxazolidine-2-yl)pyrimidine-4-yl)amino)-2-(4-((1R,4R)-5-ethyl-2,5-diazabicyclo [2.2.1]heptane-2-yl)piperidine-1-yl)-4-methoxyphenyl) acrylamide]	A (GI50 < 50 nM)
C=CC(=O)Nc1cc(Nc2cc(N3OCC[C@@H]3c3cc(F)cc(Cl)c3F)ncn2)c(OC)cc1N1CCC(N2CCN(C3CC3)CC2)CC1 [compound 938, N-(5-((6-((R)-3-(3-chloro-2,5-difluorophenyl)isoxazolidine-2-yl)pyrimidine-4-yl)amino)-2-(4-(4-cyclopropylpiperazine-1-yl)piperidine-1-yl)-4-methoxyphenyl) acrylamide]	A (GI50 < 50 nM)
C=CC(=O)Nc1cc(Nc2cc(N3OCC[C@@H]3c3ccc(Cl)c(F)c3)ncn2)c(OC)cc1N1C[C@H]2C[C@@H]1CO2 [compound 863, N-(2-((1R,4R)-2-oxa-5-azabicyclo [2.2.1]heptane-5-yl)-5-((6-((R)-3-(4-chloro-3-fluorophenyl)isoxazolidine-2-yl)pyrimidine-4-yl)amino)-4-methoxyphenyl) acrylamide]	A (GI50 < 50 nM)
C#Cc1cccc([C@H]2CCON2c2cc(Nc3cc(NC(=O)C=C)c(N4CC[C@@H](N(C)C)C4)cc3OC)ncn2)c1 [compound 653, N-(2-((R)-3-(dimethylamino)pyrolidine-1-yl)-5-((6-((R)-3-(3-ethynylphenyl)isoxazolidine-2-yl)pyrimidine-4-yl)amino)-4-methoxyphenyl) acrylamide]	A (GI50 < 50 nM)
C=CC(=O)Nc1cc(Nc2cc(N3OCC[C@@H]3c3cc(F)cc(Cl)c3)ncn2)c(OC)cc1N1CCN(C)CC1 [compound 537, N-(5-((6-((R)-3-(3-chloro-5-fluorophenyl)isoxazolidine-2-yl)pyrimidine-4-yl)amino)-4-methoxy-2-(4-methylpiperazine-1-yl)phenyl)acrylamide]	A (GI50 < 50 nM)
C=CC(=O)Nc1cc(Nc2cc(N3OCC[C@@H]3c3cccc(C#N)c3)ncn2)c(OC)cc1N1CCC(N2CCN(CC)CC2)CC1 [compound 399, N-(5-((6-((R)-3-(3-cyanophenyl)isoxazolidine-2-yl)pyrimidine-4-yl)amino)-2-(4-(4-ethylpiperazine-1-yl)piperidine-1-yl)-4-methoxyphenyl) acrylamide]	B (50 nM ≤ GI50 < 500 nM)
C=CC(=O)Nc1cc(Nc2cc(N3OCC[C@H]3Cc3ccccc3)ncn2)c(OC)cc1N1CCN(C2CCCC2)CC1 [compound 977, N-(5-((6-((R)-3-benzylisoxazolidine-2-yl)pyrimidine-4-yl)amino)-2-(4-cyclopentylpiperazine-1-yl)-4-methoxyphenyl) acrylamide]	C (500 nM ≤ GI50 < 5000 nM)
C=CC(=O)Nc1cc(Nc2cc(N3OCC[C@@H]3c3cc(F)cc(F)c3)ncn2)c(OC)cc1N1CCC(N2CCO[C@H](C)C2)CC1 [compound 758, N-(5-((6-((R)-3-(3,5-difluorophenyl)isoxazolidine-2-yl)pyrimidine-4-yl)amino)-4-methoxy-2-(4-((R)-2-methylmorpholino)piperidine-1-yl)phenyl) acrylamide]	B (50 nM ≤ GI50 < 500 nM)

More lines, now with the values ahead:

Ba/F3 (NPH) Activity	Structure (SMILES)
C (500 nM ≤ GI50 < 5000 nM)	C=CC(=O)Nc1cc(Nc2cc(N3OCC[C@@H]3Cc3cccnc3)ncn2)c(OC)cc1N1CCC(N2CCN(C3CC3)CC2)CC1 [compound 985, N-(2-(4-(4-cyclopropylpiperazine-1-yl)piperidine-1-yl)-4-methoxy-5-((6-((S)-3-(pyridine-3-ylmethyl)isoxazolidine-2-yl)pyrimidine-4-yl)amino)phenyl) acrylamide]
A (GI50 < 50 nM)	C=CC(=O)Nc1cc(Nc2cc(N3OCC[C@@H]3c3ccc(F)c(Cl)c3)ncn2)c(OC)cc1N1C[C@H]2C[C@@H]1CO2 [compound 903, N-(2-((1R,4R)-2-oxa-5-azabicyclo [2.2.1]heptane-5-yl)-5-((6-((R)-3-(3-chloro-4-fluorophenyl)isoxazolidine-2-yl)pyrimidine-4-yl)amino)-4-methoxyphenyl) acrylamide]
A (GI50 < 50 nM)	C=CC(=O)Nc1cc(Nc2cc(N3OCC[C@@H]3c3cc(F)ccc3F)ncn2)c(OC)cc1N1CCC(N2CCO[C@H](C)C2)CC1 [compound 822, N-(5-((6-((R)-3-(2,5-difluorophenyl)isoxazolidine-2-yl)pyrimidine-4-yl)amino)-4-methoxy-2-(4-((R)-2-methylmorpholino)piperidine-1-yl)phenyl) acrylamide]
A (GI50 < 50 nM)	C=CC(=O)Nc1cc(Nc2cc(N3OCC[C@@H]3c3cc(F)cc(F)c3)ncn2)c(C)cc1N1CCC(N2CCN(C3CC3)CC2)CC1 [compound 534, N-(2-(4-(4-cyclopropylpiperazine-1-yl)piperidine-1-yl)-5-((6-((R)-3-(3,5-difluorophenyl)isoxazolidine-2-yl)pyrimidine-4-yl)amino)-4-methylphenyl) acrylamide]
B (50 nM ≤ GI50 < 500 nM)	C=CC(=O)Nc1cc(Nc2cc(N3OCC[C@@H]3c3c(F)ccc(F)c3F)ncn2)c(OC)cc1N1CCN(C)CC1 [compound 629, N-(4-methoxy-2-(4-methylpiperazine-1-yl)-5-((6-((R)-3-(2,3,6-trifluorophenyl)isoxazolidine-2-yl)pyrimidine-4-yl)amino)phenyl)acrylamide]
A (GI50 < 50 nM)	C=CC(=O)Nc1cc(Nc2cc(N3OCC[C@@H]3c3cccc(F)c3Cl)ncn2)c(OC)cc1N1CCC(N2CCN(C3CC3)CC2)CC1 [Example 164, N-(5-((6-((R)-3-(2-chloro-3-fluorophenyl)isoxazolidine-2-yl)pyrimidine-4-yl)amino)-2-(4-(4-cyclopropylpiperazine-1-yl)piperidine-1-yl)-4-methoxyphenyl) acrylamide]
A (GI50 < 50 nM)	C=CC(=O)Nc1cc(Nc2cc(N3OCC[C@@H]3c3cccc(Cl)c3Cl)ncn2)c(OC)cc1N1CCC(N2CCN(C3CCOCC3)CC2)CC1 [Example 208, N-(5-((6-((R)-3-(2,3-dichlorophenyl)isoxazolidine-2-yl)pyrimidine-4-yl)amino)-4-methoxy-2-(4-(4-(tetrahydro-2H-pyran-4-yl)piperazine-1-yl)piperidine-1-yl)phenyl)acrylamide]
A (GI50 < 50 nM)	C=CC(=O)Nc1cc(Nc2cc(N3OCC[C@@H]3c3ccc(F)c(F)c3F)ncn2)c(OC)cc1N1CCN(C)CC1 [compound 572, N-(4-methoxy-2-(4-methylpiperazine-1-yl)-5-((6-((R)-3-(2,3,4-trifluorophenyl)isoxazolidine-2-yl)pyrimidine-4-yl)amino)phenyl) acrylamide]
